Test results reported in doi:10.1101/2025.04.09.647920v1, “TIR immune signaling is blocked by phosphorylation to maintain growth in plants and animals” (biorxiv, 2025).

Molecular target: T1, RBA1 (Arabidopsis thaliana, UniProt F4HT77)
T1 construct: TIR-only protein, recombinant from insect cells
T1 sequence (F4HT77 1-363): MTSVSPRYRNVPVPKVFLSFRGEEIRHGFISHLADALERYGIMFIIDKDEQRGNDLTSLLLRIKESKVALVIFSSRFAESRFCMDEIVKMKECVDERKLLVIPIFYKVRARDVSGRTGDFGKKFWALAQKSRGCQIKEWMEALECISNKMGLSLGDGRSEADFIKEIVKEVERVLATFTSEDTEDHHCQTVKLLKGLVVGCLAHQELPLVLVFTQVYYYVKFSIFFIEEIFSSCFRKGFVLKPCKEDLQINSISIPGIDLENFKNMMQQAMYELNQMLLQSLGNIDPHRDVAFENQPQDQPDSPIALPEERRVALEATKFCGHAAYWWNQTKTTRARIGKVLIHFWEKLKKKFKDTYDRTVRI
Assay: LC-MS/MS NADase assay
Type: biochemical
Conditions: in vitro

## NC(=O)c1ccc[n+]([C@@H]2O[C@H](COP(=O)(O)OP(=O)(O)OC[C@H]3O[C@@H](n4cnc5c(N)ncnc54)[C@H](O)[C@@H]3O)[C@@H](O)[C@H]2O)c1 [NAD^+]
  LC-MS/MS NADase assay: Recombinant RBA1 protein purified from insect cells cleaved NAD^+ into nicotinamide (Nam)
